Experimental data taken from patent US20020115642A1, “Beta-lactam antibiotics” (priority 2000, published 2002).
In brackets after ≈: the same amount, converted by molar mass. Where two headings read alike, the source gives them in different places.

Tests used:
Assay in all cases: Susceptibility testing (MIC, modified NCCLS method)
[1] = tested on: E. faecalis; format: cell-based, Enterococcus faecalis
Protocol: (§1) The NCCLS (National Committee for Clinical Laboratory Standards) method to determine MIC's of antimicrobial compounds was modified for high-throughput screening. All stocks of tested compounds were prepared in either water or in dimethylsulfoxide (DMSO), depending on the solubility. […] Briefly 20 2-fold serial dilutions of testing compounds from the highest concentration were made in a 384-well microtiter plate. Each well was inoculated with testing bacteria in broth to a final concentration of approximately 1-1.5×10^6 cells/ml. Bacterial growth was determined by the increase of optical density at 600 nm using a microplate reader (Tecan SpectraFluor Plus).

[2] = tested on: K. pneumoniae; format: cell-based, Klebsiella pneumoniae
Protocol: as §1

[3] = tested on: P. aeruginosa; format: cell-based, Pseudomonas aeruginosa
Protocol: as §1

[4] = tested on: E. aerogenes; format: cell-based, Enterobacter aerogenes; details: E. aerogenes ATCC 35028
Protocol: as §1

[5] = tested on: E. cloacae; format: cell-based, Enterobacter cloacae; details: E. cloacae ATCC 23355
Protocol: as §1

[6] = tested on: Staphylococcus aureus; format: cell-based
Protocol: as §1

[7] = tested on: E. coli/TEM-1; format: cell-based, Escherichia coli
Protocol: as §1

[8] = tested on: E. coli N; format: cell-based, Escherichia coli; details: E. coli (N)
Protocol: as §1

[9] = tested on: S. epidermidis; format: cell-based, Staphylococcus epidermidis; details: Staphylococcus epidermidis, S. epidermidis (5); read-out: GM* MIC (geometric mean)
Protocol: as §1

O=C(Cc1cnc[nH]1)NC1C(=O)N2C(C(=O)O)=C(COc3cc(Cl)ccc3Oc3ccc(Cl)cc3Cl)CS[C@H]12 (some centres unmarked) [Compound 31, 3-(2-(2,4-Dichlorophenoxy)-5-chlorophenoxy)methyl-7-[2-(3H-imidazol-4-yl)]-acetamido-3-cephem-4-carboxylic acid]
MIC ([1]; E. faecalis ATCC 49757): 32 µg/mL (≈ 52.5 µM)
MIC ([1]; E. faecalis ATCC 700802): >32 µg/mL
MIC ([2]; K. pneumoniae ATCC 51503): 32 µg/mL (≈ 52.5 µM)
MIC ([2]; K. pneumoniae ATCC 700721): 0.5 µg/mL (≈ 0.82 µM)
MIC ([3]; P. aeruginosa ATCC 21726): >32 µg/mL
MIC ([3]; P. aeruginosa ATCC 29872): >32 µg/mL
MIC [4]: 16 µg/mL (≈ 26.2 µM)
MIC [5]: 16 µg/mL (≈ 26.2 µM)
MIC ([6]; S. aureus ATCC 11632): 16 µg/mL (≈ 26.2 µM)
MIC ([6]; S. aureus ATCC 33591): 16 µg/mL (≈ 26.2 µM)
MIC ([6]; S. aureus ATCC 33594): 0.063 µg/mL (≈ 0.103 µM)
MIC ([6]; S. aureus ATCC 700260): 32 µg/mL (≈ 52.5 µM)
MIC ([6]; S. aureus ATCC 700699): 32 µg/mL (≈ 52.5 µM)
MIC ([7]; E. coli/Tem-1): 0.063 µg/mL (≈ 0.103 µM)
MIC [8]: 0.25 µg/mL (≈ 0.41 µM)

NC(C(=O)NC1C(=O)N2C(C(=O)O)=C(COc3cc(Cl)ccc3Oc3ccc(Cl)cc3Cl)CSC12)c1ccccc1 (centres unmarked) [Compound 38, 3-(2-(2,4-Dichlorophenoxy)-5-chlorophenoxy)methyl-7-(1-phenyl-2-aminoacetamido)-3-cephem-4-carboxylic acid]
MIC ([1]; E. faecalis ATCC 49757): 15.9 µg/mL (≈ 25 µM)
MIC ([1]; E. faecalis ATCC 700802): 15.9 µg/mL (≈ 25 µM)
MIC ([2]; K. pneumoniae ATCC 51503): 1.98 µg/mL (≈ 3.12 µM)
MIC ([3]; P. aeruginosa ATCC 21726): >15.9 µg/mL
MIC ([3]; P. aeruginosa ATCC 29872): >15.9 µg/mL
MIC [4]: 1.98 µg/mL (≈ 3.12 µM)
MIC [5]: 1.98 µg/mL (≈ 3.12 µM)
MIC ([6]; S. aureus ATCC 11632): 0.062 µg/mL (≈ 0.0976 µM)
MIC ([6]; S. aureus ATCC 33594): 0.062 µg/mL (≈ 0.0976 µM)
MIC ([6]; S. aureus ATCC 700260): 1.5e-05 µg/mL (≈ 2.36e-05 µM)
MIC ([6]; S. aureus ATCC 700699): 1.5e-05 µg/mL (≈ 2.36e-05 µM)
MIC ([7]; E. coli/Tem-1): 0.015 µg/mL (≈ 0.0236 µM)
MIC [8]: 0.031 µg/mL (≈ 0.0488 µM)

O=C(COc1ccc(O)cc1)NC1C(=O)N2C(C(=O)O)=C(COc3cc(Cl)ccc3Oc3ccc(Cl)cc3Cl)CS[C@H]12 (some centres unmarked) [Compound 40, 3-(2-(2,4-dichlorophenoxy)-5-chlorophenoxy)methyl-7-[2-(4-hydroxyphenoxy)acetamido]-3-cephem-4-carboxylic acid]
MIC ([1]; Enterococcus faecalis, ATCC49757, E. faecalis ATCC 49757, read-out: MIC): 16 µg/mL (≈ 24.5 µM)
MIC ([1]; Enterococcus faecalis, ATCC700802, E. faecalis ATCC 700802, read-out: MIC): 16 µg/mL (≈ 24.5 µM)
MIC ([2]; Klebsiella pneumoniae, ATCC51503, K. pneumoniae ATCC 51503, read-out: MIC): 16 µg/mL (≈ 24.5 µM)
MIC ([2]; Klebsiella pneumoniae, ATCC700721, K. pneumoniae ATCC 700721, read-out: MIC): 2 µg/mL (≈ 3.07 µM)
MIC ([3]; Pseudomonas aeruginosa, ATCC21726, P. aeruginosa ATCC 21726, read-out: MIC): > 32 µg/mL
MIC ([3]; Pseudomonas aeruginosa, ATCC29872, P. aeruginosa ATCC 29872, read-out: MIC): > 32 µg/mL
MIC ([4]; Klebsiella aerogenes, ATCC35028, read-out: MIC): 32 µg/mL (≈ 49.1 µM)
MIC ([5]; Enterobacter cloacae, ATCC23355, read-out: MIC): 16 µg/mL (≈ 24.5 µM)
MIC ([6]; Staphylococcus aureus, ATCC11632, S. aureus ATCC 11632, read-out: MIC): 16 µg/mL (≈ 24.5 µM)
MIC ([6]; Staphylococcus aureus, ATCC33591, S. aureus ATCC 33591, read-out: MIC): 0.125 µg/mL (≈ 0.192 µM)
MIC ([6]; Staphylococcus aureus, ATCC33594, S. aureus ATCC 33594, read-out: MIC): 0.063 µg/mL (≈ 0.0966 µM)
MIC ([6]; Staphylococcus aureus, ATCC700260, S. aureus ATCC 700260, read-out: MIC): 4 µg/mL (≈ 6.14 µM)
MIC ([6]; Staphylococcus aureus, ATCC700699, S. aureus ATCC 700699, read-out: MIC): 32 µg/mL (≈ 49.1 µM)
MIC ([7]; Escherichia coli): 0.063 µg/mL (≈ 0.0966 µM)
MIC ([8]; Escherichia coli, read-out: MIC): 0.5 µg/mL (≈ 0.767 µM)

O=C(Cn1cnnn1)Nc1ncc(CC(=O)NC2C(=O)N3C(C(=O)O)=C(COc4cc(Cl)ccc4Oc4ccc(Cl)cc4Cl)CS[C@H]23)s1 (some centres unmarked) [Compound 43]
MIC ([1]; E. faecalis ATCC 49757): 32 µg/mL (≈ 42.6 µM)
MIC ([1]; E. faecalis ATCC 700802): 32 µg/mL (≈ 42.6 µM)
MIC ([2]; K. pneumoniae ATCC 51503): 32 µg/mL (≈ 42.6 µM)
MIC ([2]; K. pneumoniae ATCC 700721): 4 µg/mL (≈ 5.32 µM)
MIC ([3]; P. aeruginosa ATCC 21726): >32 µg/mL
MIC ([3]; P. aeruginosa ATCC 29872): >32 µg/mL
MIC [4]: 32 µg/mL (≈ 42.6 µM)
MIC [5]: 32 µg/mL (≈ 42.6 µM)
MIC ([6]; S. aureus ATCC 11632): 32 µg/mL (≈ 42.6 µM)
MIC ([6]; S. aureus ATCC 33591): 0.125 µg/mL (≈ 0.166 µM)
MIC ([6]; S. aureus ATCC 33594): 0.063 µg/mL (≈ 0.0838 µM)
MIC ([6]; S. aureus ATCC 700260): 8 µg/mL (≈ 10.6 µM)
MIC ([6]; S. aureus ATCC 700699): 32 µg/mL (≈ 42.6 µM)
MIC ([7]; E. coli/Tem-1): 0.25 µg/mL (≈ 0.332 µM)
MIC [8]: 2 µg/mL (≈ 2.66 µM)

Cc1nnc(SCC(=O)Nc2ncc(CC(=O)NC3C(=O)N4C(C(=O)O)=C(COc5cc(Cl)ccc5Oc5ccc(Cl)cc5Cl)CSC34)s2)s1 (centres unmarked) [Compound 47]
MIC ([1]; E. faecalis ATCC 49757): >32 µg/mL
MIC ([1]; E. faecalis ATCC 700802): >32 µg/mL
MIC ([2]; K. pneumoniae ATCC 51503): >32 µg/mL
MIC ([2]; K. pneumoniae ATCC 700721): 8 µg/mL (≈ 9.83 µM)
MIC ([3]; P. aeruginosa ATCC 21726): >32 µg/mL
MIC ([3]; P. aeruginosa ATCC 29872): >32 µg/mL
MIC [4]: >32 µg/mL
MIC [5]: >32 µg/mL
MIC ([6]; S. aureus ATCC 11632): >32 µg/mL
MIC ([6]; S. aureus ATCC 33591): 0.125 µg/mL (≈ 0.154 µM)
MIC ([6]; S. aureus ATCC 33594): 0.063 µg/mL (≈ 0.0774 µM)
MIC ([6]; S. aureus ATCC 700260): 8 µg/mL (≈ 9.83 µM)
MIC ([6]; S. aureus ATCC 700699): >32 µg/mL
MIC ([7]; E. coli/Tem-1): 0.25 µg/mL (≈ 0.307 µM)
MIC [8]: 2 µg/mL (≈ 2.46 µM)

Cc1onc(-c2ccccc2)c1C(=O)N[C@@H]1C(=O)N2[C@@H]1SC(C)(C)[C@@H]2C(=O)O [Oxacillin, reference compound]
MIC [9]: > 7.87 µg/mL
MIC range ([1]; E. faecalis (7)): >11 µg/mL
MIC ([1]; Enterococcus faecalis, E. faecalis (7), read-out: GM* MIC (geometric mean)): > 11 µg/mL
MIC ([6]; Staphylococcus aureus, ATCC11632, ATCC 11632, methicillin-sensitive, β-lactamase Neg./Pos., read-out: MIC): 0.25 µg/mL (≈ 0.623 µM)
MIC ([6]; Staphylococcus aureus, ATCC13301, ATCC 13301, methicillin-sensitive, β-lactamase Positive, read-out: MIC): 0.25 µg/mL (≈ 0.623 µM)
MIC ([6]; Staphylococcus aureus, ATCC14154, ATCC 14154, methicillin-sensitive, β-lactamase Positive, read-out: MIC): 0.5 µg/mL (≈ 1.25 µM)
MIC ([6]; Staphylococcus aureus, ATCC33591, ATCC 33591, methicillin-resistant, β-lactamase Positive, read-out: MIC): 8 µg/mL (≈ 19.9 µM)
MIC ([6]; Staphylococcus aureus, ATCC33592, ATCC 33592, methicillin-sensitive, β-lactamase Positive, read-out: MIC): 2 µg/mL (≈ 4.98 µM)
MIC ([6]; Staphylococcus aureus, ATCC33593, ATCC 33593, methicillin-resistant, β-lactamase Positive, read-out: MIC): 8 µg/mL (≈ 19.9 µM)
MIC ([6]; Staphylococcus aureus, ATCC33594, ATCC 33594, methicillin-sensitive, β-lactamase Positive, read-out: MIC): 0.25 µg/mL (≈ 0.623 µM)
MIC ([6]; Staphylococcus aureus, ATCC43300, ATCC 43300, methicillin-sensitive, β-lactamase Neg./Pos., read-out: MIC): 2 µg/mL (≈ 4.98 µM)
MIC ([6]; Staphylococcus aureus, ATCC700260, ATCC 700260, methicillin-sensitive, β-lactamase Positive, read-out: MIC): 0.5 µg/mL (≈ 1.25 µM)
MIC ([6]; Staphylococcus aureus, ATCC700698, ATCC 700698, methicillin-resistant, β-lactamase Negative, read-out: MIC): > 32 µg/mL
MIC ([6]; Staphylococcus aureus, ATCC700699, ATCC 700699, methicillin-resistant, β-lactamase Negative, read-out: MIC): > 32 µg/mL
MIC ([6]; Staphylococcus aureus, ATCC700787, ATCC 700787, methicillin-resistant, β-lactamase Positive, read-out: MIC): > 32 µg/mL
MIC ([6]; Staphylococcus aureus, ATCC700788, ATCC 700788, methicillin-resistant, β-lactamase Positive, read-out: MIC): > 32 µg/mL
MIC ([6]; Staphylococcus aureus, ATCC700789, ATCC 700789, methicillin-resistant, β-lactamase Positive, read-out: MIC): 32 µg/mL (≈ 79.7 µM)
MIC ([6]; Staphylococcus aureus, MRSA, MRSA tested (7), read-out: Geometric mean of MIC): > 21.5 µg/mL
MIC ([6]; Staphylococcus aureus, MSSA, MSSA tested (7), read-out: Geometric mean of MIC): 0.55 µg/mL (≈ 1.37 µM)
MIC ([6]; Staphylococcus aureus, S. aureus (14), read-out: Geometric mean of MIC): > 3.45 µg/mL
MIC ([6]; Staphylococcus aureus, S. aureus β-lactamase negative (2), read-out: Geometric mean of MIC): > 32 µg/mL
MIC ([6]; Staphylococcus aureus, S. aureus β-lactamase positive (12), read-out: Geometric mean of MIC): 2.34 µg/mL (≈ 5.83 µM)
